Tests used:
Acetylcholinesterase = target: T1, Acetylcholinesterase (Rattus norvegicus, UniProt P37136)
T1 sequence (P37136 whole entry): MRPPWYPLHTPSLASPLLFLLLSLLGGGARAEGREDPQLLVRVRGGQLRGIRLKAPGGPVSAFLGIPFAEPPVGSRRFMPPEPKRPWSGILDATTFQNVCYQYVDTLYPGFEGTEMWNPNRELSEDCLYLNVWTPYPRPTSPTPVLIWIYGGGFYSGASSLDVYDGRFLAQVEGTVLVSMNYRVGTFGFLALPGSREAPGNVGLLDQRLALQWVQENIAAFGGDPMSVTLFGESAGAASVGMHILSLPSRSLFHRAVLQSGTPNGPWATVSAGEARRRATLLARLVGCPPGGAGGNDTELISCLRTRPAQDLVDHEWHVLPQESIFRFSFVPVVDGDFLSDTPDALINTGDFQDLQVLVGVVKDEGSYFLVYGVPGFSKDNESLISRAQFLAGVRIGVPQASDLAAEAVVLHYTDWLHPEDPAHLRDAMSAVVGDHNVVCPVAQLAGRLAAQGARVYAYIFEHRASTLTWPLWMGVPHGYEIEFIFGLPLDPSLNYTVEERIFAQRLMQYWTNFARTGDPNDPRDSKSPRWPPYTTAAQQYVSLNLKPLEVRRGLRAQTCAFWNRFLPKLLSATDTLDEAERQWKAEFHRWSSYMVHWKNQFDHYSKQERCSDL
Description: Inhibitory potency against acetylcholinesterase (AChE) of rat cortex homogenate with ethopropazine as BChE inhibitor

Butyrylcholinesterase = Butyrylcholinesterase (Rattus norvegicus, UniProt Q9JKC1)
Butyrylcholinesterase, sequence (Q9JKC1 whole entry): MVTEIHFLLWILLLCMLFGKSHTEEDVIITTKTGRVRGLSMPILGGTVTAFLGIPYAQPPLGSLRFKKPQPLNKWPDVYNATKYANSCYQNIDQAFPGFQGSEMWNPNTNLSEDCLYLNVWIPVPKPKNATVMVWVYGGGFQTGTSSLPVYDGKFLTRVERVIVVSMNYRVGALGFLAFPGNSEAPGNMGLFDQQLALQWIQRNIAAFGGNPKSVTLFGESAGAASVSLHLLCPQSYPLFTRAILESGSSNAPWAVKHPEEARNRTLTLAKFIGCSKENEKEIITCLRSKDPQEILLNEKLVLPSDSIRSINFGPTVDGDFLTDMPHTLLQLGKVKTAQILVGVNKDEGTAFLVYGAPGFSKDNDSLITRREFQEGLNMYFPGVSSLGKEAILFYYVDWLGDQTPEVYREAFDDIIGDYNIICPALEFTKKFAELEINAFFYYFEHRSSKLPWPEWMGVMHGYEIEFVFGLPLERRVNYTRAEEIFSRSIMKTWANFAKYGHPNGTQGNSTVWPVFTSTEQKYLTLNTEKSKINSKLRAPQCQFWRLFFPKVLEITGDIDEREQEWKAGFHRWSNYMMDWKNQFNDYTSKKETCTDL
Description: Inhibitory potency against rat serum Butyrylcholinesterase with BW284c51 as AChE inhibitor

SMILES	IC50 (Acetylcholinesterase) [nM]	IC50 (Butyrylcholinesterase) [nM]
O=c1ccc2c([nH]1)CCCC2NCCCCCCCCNc1c2c(nc3ccccc13)CCCC2 (racemic)	26.2	166
O=c1ccc2c([nH]1)CCCC2NCCCCCCCCCCNc1c2c(nc3ccccc13)CCCC2 (racemic)		81.5
Oc1ccc2c(n1)CCCC2NCCCCCCCNc1c2c(nc3ccccc13)CCCC2 (racemic)	53.1	233
Oc1ccc2c(n1)CCCC2NCCCCCCNc1c2c(nc3ccccc13)CCCC2 (racemic)	37.1	223
O=c1ccc2c([nH]1)CCCC2NCCCCCCCCCCCCNc1c2c(nc3ccccc13)CCCC2 (racemic)	112	434
Oc1ccc2c(n1)CCCC2NCCCCCNc1c2c(nc3ccccc13)CCCC2 (racemic)	122	220
Oc1ccc2c(n1)CCCC2NCCCCCCCCCNc1c2c(nc3ccccc13)CCCC2 (racemic)	36.3	150
Oc1ccc2c(n1)CCCC2NCCCCNc1c2c(nc3ccccc13)CCCC2 (racemic)	42.6	228

— ChEMBL document CHEMBL1131836, “Potent, easily synthesized huperzine A-tacrine hybrid acetylcholinesterase inhibitors” (Bioorg Med Chem Lett, 1999)
